Reference: patent publication US6734139B1, “N-aryl-uracile-based herbicides” (priority 1999, dated 2004)
Where “and” joins values, the source holds several entries; their conditions need not be identical. Identical values can stand only once.

Key:
Format in all cases: in vivo
Galium = test: Pre-emergence test (herbicidal action, Colby): Galium; details: 8 g of a.i./ha
Chenopodium [1] = test: Pre-emergence test (herbicidal action, Colby): Chenopodium; details: 4 g of a.i./ha
Viola = test: Pre-emergence test (herbicidal action, Colby): Viola; details: 8 g of a.i./ha
Digitaria = test: Pre-emergence test (herbicidal action, Colby): Digitaria
Chenopodium [2] = test: Post-emergence test (herbicidal action, Colby): Chenopodium; details: 4 g of a.i./ha
Veronica = test: Post-emergence test (herbicidal action, Colby): Veronica
Description: (§1) The expected action for a given combination of two herbicides can be calculated as follows (cf. COLBY, S. R.: “Calculating synergistic and antagonistic responses of herbicide combinations”, Weeds 15, Pages 20-22, 1967):
(§2) If the actual damage exceeds the calculated value, the combination has a superadditive effect, that is to say a synergistic effect.
(§3) To produce a suitable preparation of active compound, 1 part by weight of active compound is mixed with the stated amount of solvent, the stated amount of emulsifier is added and the concentrate is diluted with water to the desired concentration. Formulated products are dissolved in water and then diluted with water to the desired concentration.
(§4) The solutions of the other mixing components (active compounds or safeners) are prepared analogously. The separately prepared solutions of the various mixing components are then combined and, if appropriate, additional substances (formulation auxiliaries, additives, etc.) are added and, if appropriate, water is added to prepare the desired dilution.
(§5) After three weeks, the degree of damage to the plants is rated in % damage in comparison to the development of the untreated control. The figures denote
(§6) 0%=no effect/no damage (like untreated control)

Abutilon [3] = test: Pre-emergence test (herbicidal action, Colby): Abutilon
Ipomoea = test: Pre-emergence test (herbicidal action, Colby): Ipomoea
Cyperus = test: Pre-emergence test (herbicidal action, Colby): Cyperus
maize = test: Pre-emergence test in maize (crop plant compatibility); details: for Average damage (%): maize, pre-emergence, 0.1% Renex-36
Experimental: (§7) Solvent: 2 to 3 parts by weight of acetone or N,N-dimethyl-formamide
(§8) Emulsifier: 1 part by weight of alkylaryl polyglycol ether
as §3, §4
(§9) Seeds of the test plants are sown in standard soil. After 24 hours, the soil is sprayed with the preparation of active compound such that the particular amount of active compound desired in each case is applied per unit area. The concentration of active compound in the spray liquor is chosen such that the particular amount of active compound desired in each case is applied in 500 litres of water per hectare. The containers with the test plants are kept in a greenhouse at controlled temperature and controlled illumination until evaluation.
as §6

Abutilon [4] = test: Post-emergence test (herbicidal action, Colby): Abutilon; details: 4 g of a.i./ha
Solanum = test: Post-emergence test (herbicidal action, Colby): Solanum
Description: as §1, §2, §3, §4, §5, §6

Eriochloa = test: Pre-emergence test (herbicidal action, Colby): Eriochloa
Matricaria [5] = test: Post-emergence test (herbicidal action, Colby): Matricaria; details: 4 g of a.i./ha
Datura [6] = test: Pre-emergence test (herbicidal action, Colby): Datura; details: 4 g of a.i./ha
Polygonum [7] = test: Post-emergence test (herbicidal action, Colby): Polygonum; details: 8 g of a.i./ha
Lolium = test: Pre-emergence test (herbicidal action, Colby): Lolium; details: 8 g of a.i./ha
Matricaria [8] = test: Pre-emergence test (herbicidal action, Colby): Matricaria
Cassia = test: Pre-emergence test (herbicidal action, Colby): Cassia; details: 4 g of a.i./ha
Alopecurus = test: Pre-emergence test (herbicidal action, Colby): Alopecurus
Echinochloa = test: Pre-emergence test (herbicidal action, Colby): Echinochloa
Datura [9] = test: Post-emergence test (herbicidal action, Colby): Datura
weeds = test: Pre-emergence test (herbicidal action against weeds, Colby)
Description: as §1, §2
The theoretically expected activity for a given combination of three herbicides can likewise be found in the literature mentioned above.
as §7, §8, §3, §4, §9, §5, §6

Stellaria = test: Pre-emergence test (herbicidal action, Colby): Stellaria; details: 4 g of a.i./ha
Polygonum [10] = test: Pre-emergence test (herbicidal action, Colby): Polygonum
Bromus = test: Pre-emergence test (herbicidal action, Colby): Bromus; details: 4 g of a.i./ha
Setaria = test: Pre-emergence test (herbicidal action, Colby): Setaria
[11] = single active compound at 4 g of a.i./ha

CCS(=O)(=O)N(C(=O)C(C)(C)C)c1cc(-n2c(=O)cc(C(F)(F)F)n(C)c2=O)c(F)cc1C#N [I-3, N-[2-cyano-4-fluoro-5-(3-methyl-2,6-dioxo-4-trifluoromethyl-3,6-dihydro-1(2H)-pyrimidinyl)-phenyl]-N-(2,2-dimethyl-propanoyl)-1-ethanesulphonamide]
Galium (Galium): 30%
Chenopodium (Chenopodium [1]): 80%
Viola (Viola): 90%
Digitaria (Digitaria; 4 g of a.i./ha): 0%
Digitaria (Digitaria; 8 g of a.i./ha): 20%
Chenopodium (Chenopodium [2]): 0%
Veronica (Veronica; 4 g of a.i./ha): 0%
Veronica (Veronica; 8 g of a.i./ha): 70%
damage, Veronica (Veronica; [11]): 0%
damage, Veronica (Veronica; single active compound at 8 g of a.i./ha): 70%
pest or weed control at 4 g/ha (Abutilon [3]; 4 g of a.i./ha): 20%
pest or weed control at 8 g/ha (Abutilon [3]; 8 g of a.i./ha): 50%
Ipomoea (Ipomoea; 4 g of a.i./ha): 30% and 50%
Ipomoea (Ipomoea; 8 g of a.i./ha): 30%
Cyperus (Cyperus; 4 g of a.i./ha): 0%
Cyperus (Cyperus; 8 g of a.i./ha): 30%
Maize (7 days) (maize; Table A28, 60 g of a.i./ha): 10%
Maize (12 days) (maize; Table A28, 60 g of a.i./ha): 20%
Maize (21 days) (maize; Table A28, 60 g of a.i./ha): 17%
Maize (7 days) (maize; Table A28, 90 g of a.i./ha): 20%
Maize (21 days) (maize; Table A28, 90 g of a.i./ha): 36%
Maize (12 days) (maize; Table A29, 60 g of a.i./ha): 20%
Maize (12 days) (maize; Table A29, 90 g of a.i./ha): 30%
Maize (21 days) (maize; Table A29, 90 g of a.i./ha): 36%
Maize (7 days) (maize; Table A31, 90 g of a.i./ha): 20%
Maize (12 days) (maize; Table A31, 90 g of a.i./ha): 30%
Maize (21 days) (maize; Table A31, 90 g of a.i./ha): 29%
Average damage (%) (maize; active compound 1 alone at 60 g of a.i./ha): 17%
Average damage (%) (maize; active compound 1 alone at 90 g of a.i./ha): 36%
Abutilon (Abutilon [4]): 0%
Solanum (Solanum; 4 g of a.i./ha): 30%
damage, Solanum (Solanum; [11]): 30%
Eriochloa (Eriochloa; 4 g of a.i./ha): 30%
Eriochloa (Eriochloa; 8 g of a.i./ha): 50%
Matricaria (Matricaria [5]): 70%
Datura (Datura [6]): 30%
Polygonum (Polygonum [7]): 60%
Lolium (Lolium): 20%
Matricaria (Matricaria [8]; 4 g of a.i./ha): 50%
Matricaria (Matricaria [8]; 8 g of a.i./ha): 90%
Cassia (Cassia): 40%
Alopecurus (Alopecurus; 4 g of a.i./ha): 0%
Alopecurus (Alopecurus; 8 g of a.i./ha): 0%
Echinochloa (Echinochloa; 4 g of a.i./ha): 0%
Echinochloa (Echinochloa; 8 g of a.i./ha): 0%
Datura (Datura [9]; 4 g of a.i./ha): 30%
Datura (Datura [9]; 8 g of a.i./ha): 60%
Chenopodium (pre-emergence test) (weeds; Table 23, 4 g of a.i./ha): 80
Galium (pre-emergence test) (weeds; Table 23, 4 g of a.i./ha): 0
Lolium (pre-emergence test) (weeds; Table 23, 4 g of a.i./ha): 0
Setaria (pre-emergence test) (weeds; Table 23, 4 g of a.i./ha): 0
Eriochloa (pre-emergence test) (weeds; Table 23, 8 g of a.i./ha): 50
Ipomoea (pre-emergence test) (weeds; Table 23, 8 g of a.i./ha): 30
Setaria (pre-emergence test) (weeds; Table 23, 8 g of a.i./ha): 0
Chenopodium (pre-emergence test) (weeds; Table A20, 4 g of a.i./ha): 80
Datura (pre-emergence test) (weeds; Table A20, 4 g of a.i./ha): 0
Ipomoea (pre-emergence test) (weeds; Table A20, 4 g of a.i./ha): 30
Lolium (pre-emergence test) (weeds; Table A20, 4 g of a.i./ha): 0
Datura (pre-emergence test) (weeds; Table A20, 8 g of a.i./ha): 30
Galium (pre-emergence test) (weeds; Table A20, 8 g of a.i./ha): 20
Ipomoea (pre-emergence test) (weeds; Table A20, 8 g of a.i./ha): 30
Chenopodium (pre-emergence test) (weeds; Table A21, 4 g of a.i./ha): 80
Datura (pre-emergence test) (weeds; Table A21, 4 g of a.i./ha): 0
Polygonum (pre-emergence test) (weeds; Table A21, 4 g of a.i./ha): 40
Ipomoea (pre-emergence test) (weeds; Table A21, 8 g of a.i./ha): 30
Polygonum (pre-emergence test) (weeds; Table A21, 8 g of a.i./ha): 90
Datura (pre-emergence test) (weeds; Table A22, 4 g of a.i./ha): 0
Polygonum (pre-emergence test) (weeds; Table A22, 4 g of a.i./ha): 40
Cassia (pre-emergence test) (weeds; Table A22, 8 g of a.i./ha): 50
Cassia (pre-emergence test) (weeds; Table A24, 4 g of a.i./ha): 0
Echinochloa (pre-emergence test) (weeds; Table A24, 4 g of a.i./ha): 30
Lolium (pre-emergence test) (weeds; Table A24, 4 g of a.i./ha): 0
Veronica (pre-emergence test) (weeds; Table A24, 4 g of a.i./ha): 30
Echinochloa (pre-emergence test) (weeds; Table A24, 8 g of a.i./ha): 30
Setaria (pre-emergence test) (weeds; Table A24, 8 g of a.i./ha): 30
Bromus (pre-emergence test) (weeds; Table A25, 4 g of a.i./ha): 0
Avena (pre-emergence test) (weeds; Table A25, 8 g of a.i./ha): 40
Cyperus (pre-emergence test) (weeds; Table A25, 8 g of a.i./ha): 50
Lolium (pre-emergence test) (weeds; Table A25, 8 g of a.i./ha): 60
Avena (pre-emergence test) (weeds; Table A26, 4 g of a.i./ha): 40
Digitaria (pre-emergence test) (weeds; Table A26, 4 g of a.i./ha): 30
Echinochloa (pre-emergence test) (weeds; Table A26, 4 g of a.i./ha): 0
Lolium (pre-emergence test) (weeds; Table A26, 4 g of a.i./ha): 30
Matricaria (pre-emergence test) (weeds; Table A26, 4 g of a.i./ha): 30
Setaria (pre-emergence test) (weeds; Table A26, 4 g of a.i./ha): 0
Cassia (pre-emergence test) (weeds; Table A26, 8 g of a.i./ha): 30
Echinochloa (pre-emergence test) (weeds; Table A26, 8 g of a.i./ha): 30
Lolium (pre-emergence test) (weeds; Table A26, 8 g of a.i./ha): 30
Matricaria (pre-emergence test) (weeds; Table A26, 8 g of a.i./ha): 70
Setaria (pre-emergence test) (weeds; Table A26, 8 g of a.i./ha): 30
Abutilon (pre-emergence test) (weeds; Table A27, 8 g of a.i./ha): 95
Cassia (pre-emergence test) (weeds; Table A27, 8 g of a.i./ha): 30
Polygonum (pre-emergence test) (weeds; Table A27, 8 g of a.i./ha): 20
Stellaria (Stellaria): 80%
Polygonum (Polygonum [10]; 4 g of a.i./ha): 0%
Polygonum (Polygonum [10]; 8 g of a.i./ha): 90%
Bromus (Bromus): 0%
Setaria (Setaria; 4 g of a.i./ha): 0%
Setaria (Setaria; 8 g of a.i./ha): 0%
